# Experimental data reported in patent US8759535B2, “Substituted fused imidazole derivatives, pharmaceutical compositions, and methods of use thereof” (High Point Pharmaceuticals, LLC, priority 2010, dated 2014).
# Structures can show the parent of a compound that is named as a salt.
# Tested on: HMOX1
# Assay: HMOX1 Protein Assay (immunostaining of HO-1 in NHLF cells, GE InCell 1000)
# Format: cell-based
# Settings: Homo sapiens, fold change above DMSO treated cells, 3 μM compound (asterisk), 16 h
# Method in brief: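 Fold induction of HO-1 over vehicle, normally at 5 μM compound (asterisk marks 3 μM), in 0.8% DMSO medium. Normal human lung fibroblasts were treated 16 h, then paraformaldehyde-fixed, anti-HO-1/Alexa 488 stained with Hoechst, and read by high-content imaging.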
row,Structure (SMILES),fold induction at 3 µM
1,"C[C@@H](CO)CCNC(=O)c1ccc2c(c1)nc(Nc1nc3ccc(Cl)cc3s1)n2C [Example 224, 2-(6-Chloro-benzothiazol-2-ylamino)-1-methyl-1H-benzoimidazole-5-carboxylic acid ((R)-4-hydroxy-3-methyl-butyl)-amide]",15.5
2,"Cn1c(Nc2nc3ccc(Cl)cc3s2)nc2cc(C(=O)N[C@H]3CC[C@H](O)CC3)ccc21 [Example 225, 2-(6-Chloro-benzothiazol-2-ylamino)-1-methyl-1H-benzoimidazole-5-carboxylic acid (trans-4-hydroxy-cyclohexyl)-amide]",17.7
3,"Cn1c(Nc2nc3ccc(Cl)cc3s2)nc2cc(C(=O)NCCCCCO)ccc21 [Example 227, 2-(6-Chloro-benzothiazol-2-ylamino)-1-methyl-1H-benzoimidazole-5-carboxylic acid (5-hydroxy-pentyl)-amide]",14
4,"Cn1c(Nc2nc3ccc(C(F)(F)F)cc3s2)nc2cc(C(=O)NCCCCCO)ccc21 [Example 228, 1-Methyl-2-(6-trifluoromethyl-benzothiazol-2-ylamino)-1H-benzoimidazole-5-carboxylic acid (5-hydroxy-pentyl)-amide]",26
5,"Cn1c(Nc2nc3ccc(Cl)cc3s2)nc2cc(C(=O)NC[C@H]3CC[C@H](O)CC3)ccc21 [Example 233, 2-(6-Chloro-benzothiazol-2-ylamino)-1-methyl-1H-benzoimidazole-5-carboxylic acid (trans-4-hydroxy-cyclohexylmethyl)-amide]",28
6,"Cn1c(Nc2nc3ccc(C(F)(F)F)cc3s2)nc2cc(C(=O)NC[C@H]3CC[C@H](O)CC3)ccc21 [Example 234, 1-Methyl-2-(6-trifluoromethyl-benzothiazol-2-ylamino)-1H-benzoimidazole-5-carboxylic acid (trans-4-hydroxy-cyclohexylmethyl)-amide]",30.9
7,"CNCCn1c(Nc2nc3ccc(OC(F)(F)F)cc3s2)nc2cc(C(=O)NCCOCCO)ccc21 [Example 239, 1-(2-Methylamino-ethyl)-2-(6-trifluoromethoxy-benzothiazol-2 ylamino)-1H-benzoimidazole-5-carboxylic acid[2-(2-hydroxy-ethoxy)-ethyl]-amide hydrochloride]",10
8,"C[C@H](CO)OCCNC(=O)c1ccc2c(c1)nc(Nc1nc3ccc(OC(F)(F)F)cc3s1)n2C [Example 242, 1-Methyl-2-(6-trifluoromethoxy-benzothiazol-2-ylamino)-1H-benzoimidazole-5-carboxylic acid [2-((R)-2-hydroxy-1-methyl-ethoxy)-ethyl]-amide]",28.1
9,"C[C@H](CO)OCCNC(=O)c1ccc2c(c1)nc(Nc1nc3ccc(Cl)cc3s1)n2C [Example 243, 2-(6-Chloro-benzothiazol-2-ylamino)-1-methyl-1H-benzoimidazole-5-carboxylic acid [2-((R)-2-hydroxy-1-methyl-ethoxy)-ethyl]-amide]",15.2
10,"Cn1c(Nc2nc3ccc(OC(F)(F)F)cc3s2)nc2cc(C(=O)NCCCOCCO)ccc21 [Example 250, 1-Methyl-2-(6-trifluoromethoxy-benzothiazol-2-ylamino)-1H-benzoimidazole-5-carboxylic acid [3-(2-hydroxy-ethoxy)-propyl]-amide]",25.1

# Same assay, conditions: Homo sapiens, fold change above DMSO treated cells, 5 μM compound, 16 h
row,Structure (SMILES),fold induction at 5 µM
1,"Cn1c(Nc2nc3ccc(OC(F)(F)F)cc3s2)nc2cc(C(=O)NCCCCO)c(F)cc21 [Example 222, 6-Fluoro-1-methyl-2-(6-trifluoromethoxy-benzothiazol-2-ylamino)-1H-benzoimidazole-5-carboxylic acid (4-hydroxy-butyl)-amide]",49.9
2,"C[C@@H](CO)CCNC(=O)c1ccc2c(c1)nc(Nc1nc3ccc(OC(F)(F)F)cc3s1)n2C [Example 223, 1-Methyl-2-(6-trifluoromethoxy-benzothiazol-2-ylamino)-1H-benzoimidazole-5-carboxylic acid ((R)-4-hydroxy-3-methyl-butyl)-amide]",44.7
3,"Cn1c(Nc2nc3ccc(OC(F)(F)F)cc3s2)nc2cc(C(=O)NCCCCCO)ccc21 [Example 226, 1-Methyl-2-(6-trifluoromethoxy-benzothiazol-2-ylamino)-1H-benzoimidazole-5-carboxylic acid (5-hydroxy-pentyl)-amide]",23.3
4,"Cn1c(Nc2nc3ccc(OC(F)(F)F)cc3s2)nc2cc(C(=O)NCCCC(C)(C)CO)ccc21 [Example 229, 1-Methyl-2-(6-trifluoromethoxy-benzothiazol-2-ylamino)-1H-benzoimidazole-5-carboxylic acid (5-hydroxy-4,4-dimethyl-pentyl)-amide]",14.4
5,"Cn1c(Nc2nc3ccc(OC(F)(F)F)cc3s2)nc2cc(C(=O)NCc3ccc(O)cc3)ccc21 [Example 230, 1-Methyl-2-(6-trifluoromethoxy-benzothiazol-2-ylamino)-1H-benzoimidazole-5-carboxylic acid 4-hydroxy-benzylamide]",29.8
6,"COc1ccc(CNC(=O)c2ccc3c(c2)nc(Nc2nc4ccc(OC(F)(F)F)cc4s2)n3C)cc1O [Example 231, 1-Methyl-2-(6-trifluoromethoxy-benzothiazol-2-ylamino)-1H-benzoimidazole-5-carboxylic acid 3-hydroxy-4-methoxy-benzylamide]",30.2
7,"Cn1c(Nc2nc3ccc(OC(F)(F)F)cc3s2)nc2cc(C(=O)NC[C@H]3CC[C@H](O)CC3)ccc21 [Example 232, 1-Methyl-2-(6-trifluoromethoxy-benzothiazol-2-ylamino)-1H-benzoimidazole-5-carboxylic acid (trans-4-hydroxy-cyclohexylmethyl)-amide]",33
8,"Cn1c(Nc2nc3ccc(Cl)cc3s2)nc2cc(C(=O)NCCOCCO)ccc21 [Example 235, 2-(6-Chloro-benzothiazol-2-ylamino)-1-methyl-1H-benzoimidazole-5-carboxylic acid [2-(2-hydroxy-ethoxy)-ethyl]-amide]",37.7
9,"Cn1c(Nc2nc3ccc(C(F)(F)F)cc3s2)nc2cc(C(=O)NCCOCCO)ccc21 [Example 236, 1-Methyl-2-(6-trifluoromethyl-benzothiazol-2-ylamino)-1H-benzoimidazole-5-carboxylic acid [2-(2-hydroxy-ethoxy)-ethyl]-amide]",45.7
10,"Cn1c(Nc2nc3ccc(OC(F)(F)F)cc3s2)nc2cc(C(=O)NCCOCCO)c(F)cc21 [Example 237, 6-Fluoro-1-methyl-2-(6-trifluoromethoxy-benzothiazol-2-ylamino)-1H-benzoimidazole-5-carboxylic acid [2-(2-hydroxy-ethoxy)-ethyl]-amide]",30.6
11,"Cn1c(Nc2nc3ccc(OC(F)(F)F)cc3s2)nc2cc(C(=O)NCCOCCO)cnc21 [Example 238, 3-Methyl-2-(6-trifluoromethoxy-benzothiazol-2-ylamino)-3H-imidazo[4,5-b]pyridine-6-carboxylic acid [2-(2-hydroxy-ethoxy)-ethyl]-amide]",33
12,"CNCCn1c(Nc2nc3ccc(Cl)cc3s2)nc2cc(C(=O)NCCOCCO)ccc21 [Example 240, 2-(6-Chloro-benzothiazol-2-ylamino)-1-(2-methylamino-ethyl)-1H-benzoimidazole-5-carboxylic acid [2-(2-hydroxy-ethoxy)-ethyl]-amide hydrochloride]",35.4
13,"COCCn1c(Nc2nc3ccc(OC(F)(F)F)cc3s2)nc2cc(C(=O)NCCOCCO)ccc21 [Example 241, 1-(2-Methoxy-ethyl)-2-(6-trifluoromethoxy-benzothiazol-2-ylamino)-1H-benzoimidazole-5-carboxylic acid [2-(2-hydroxy-ethoxy)-ethyl]-amide]",23.7
14,"CC(O)COCCNC(=O)c1ccc2c(c1)nc(Nc1nc3ccc(OC(F)(F)F)cc3s1)n2C (stereo not drawn) [Example 244, 1-Methyl-2-(6-trifluoromethoxy-benzothiazol-2-ylamino)-1H-benzoimidazole-5-carboxylic acid [2-(2-hydroxy-propoxy)-ethyl]-amide]",28
15,"Cn1c(Nc2nc3ccc(OC(F)(F)F)cc3s2)nc2cc(C(=O)NCCOCC(C)(C)O)ccc21 [Example 245, 1-Methyl-2-(6-trifluoromethoxy-benzothiazol-2-ylamino)-1H-benzoimidazole-5-carboxylic acid [2-(2-hydroxy-2-methyl-propoxy)-ethyl]-amide]",33.1
16,"Cn1c(Nc2nc3ccc(OC(F)(F)F)cc3s2)nc2cc(C(=O)NCCOCCCO)ccc21 [Example 246, 1-Methyl-2-(6-trifluoromethoxy-benzothiazol-2-ylamino)-1H-benzoimidazole-5-carboxylic acid [2-(3-hydroxy-propoxy)-ethyl]-amide]",76.5
17,"Cn1c(Nc2nc3ccc(OC(F)(F)F)cc3s2)nc2cc(C(=O)NCCOCCCF)ccc21 [Example 247, 1-Methyl-2-(6-trifluoromethoxy-benzothiazol-2-ylamino)-1H-benzoimidazole-5-carboxylic acid [2-(3-fluoro-propoxy)-ethyl]-amide]",28.3
18,"Cn1c(Nc2nc3ccc(Cl)cc3s2)nc2cc(C(=O)NCCOCCCO)ccc21 [Example 248, 2-(6-Chloro-benzothiazol-2-ylamino)-1-methyl-1H-benzoimidazole-5-carboxylic acid [2-(3-hydroxy-propoxy)-ethyl]-amide]",58.7
19,"Cn1c(Nc2nc3ccc(Cl)cc3s2)nc2cc(C(=O)NCCOCCCF)ccc21 [Example 249, 2-(6-Chloro-benzothiazol-2-ylamino)-1-methyl-1H-benzoimidazole-5-carboxylic acid [2-(3-fluoro-propoxy)-ethyl]-amide]",31.2
20,"Cn1c(Nc2nc3ccc(OC(F)(F)F)cc3s2)nc2cc(C(=O)NCCc3ccc(O)cc3)ccc21 [Example 251, 1-Methyl-2-(6-trifluoromethoxy-benzothiazol-2-ylamino)-1H-benzoimidazole-5-carboxylic acid [2-(4-hydroxy-phenyl)-ethyl]-amide]",29.6
